Assay results taken from patent US11357752B2, “Carolacton and derivatives thereof for use in the treatment of cell proliferation disorders” (Helmholtz-Zentrum für Infektionsforschung GmbH, priority 2017, dated 2022).
Where two headings read alike, the source gives them in different places.

Legend:
Experiment in all cases: CellTiter-Glo luminescent cell viability assay
Format in all cases: cell-based, human
NK-92 cells = conditions: for IC50: Homo sapiens
Experimental: (§1) To evaluate the effects of one compound on 7 cell lines with a CellTiter-Glo Luminescent Cell Viability Assay. Cells were treated with compounds for 72 hours at 37° C./5% CO2 incubator. Compound stock concentration was 20 mM, concentrations to be assayed 100\50\15\10.5\0.1\0.05\0.01\0.005 pM. • i) Materials and Reagents
(§2) a) Cells in log-phase are collected and counted. Cell suspensions are added to each well of 384-w plate at a suitable density. The margin wells are filled with PBS.
(§3) b) Test compound at various concentrations are added in duplicates
(§4) c) The cells were incubated for 72 h in 370/5% CO 2 incubator.
(§5) d) After incubation, CellTiter-Glo® Reagent is added to each test well and shack for 2 minutes on an orbital shaker.
(§6) e) The plates are shortly centrifuged at 90×g for 30 s and incubated at room temperature for additional 10 minutes to stabilize the luminescent signal.
(§7) f) Luminescence signals are detected on PHERAstar Plus.
(§8) g) Data is collected in Microsoft excel forms and analyzed with GraphPad Prism v.6 software. • iii) Data analysis
(§9) The potential effect of the testing compounds an cell proliferation was calculated by the formula below: Inhibition %=[…]
(§10) Since hsMTHFD2 is expressed in human mitochondria and overexpressed in many tumor cells we next aimed to evaluate its potential as an anticancer compound. To this end IC50 values for carolacton were determined for six different cancer cell lines as well as HUVEC cells as primary non-tumor cells. The CellTiter-Glo luminescent cell viability assay (Promega) was used on triplicate cultures grown for three days. Each cell line was tested in three independent experiments (performed at different times and by different experimentators): First, using natural carolacton purified from culture supernatants of Sorangium cellulosum and solved in methanol; second, using carolacton synthesized de novo according to Schmidt et al. 2012 and solved in DMSO; and third, using synthetic carolacton synthesized de novo according to Schmidt et al. 2012 and solved in methanol.

NCI-N87 cells = conditions: for IC50: Homo sapiens, NCI-N87, 72 h, 72 h, read-out: IC50 inhibition of cancer cell proliferation
Experimental: as §1, §2, §3, §4, §5, §6, §7, §8, §9, §10

U-937 cells = conditions: for IC50: Homo sapiens
Experimental: as §1, §2, §3, §4, §5, §6, §7, §8, §9, §10

SW626 cells = conditions: for IC50: Homo sapiens, SW626, 72 h, 72 h, read-out: IC50 inhibition of cancer cell proliferation
Experimental: as §1, §2, §3, §4, §5, §6, §7, §8, §9, §10

THP-1 cells = conditions: for IC50: Homo sapiens, THP-1, 72 h, 72 h
Experimental: as §1, §2, §3, §4, §5, §6, §7, §8, §9, §10

HCT 116 cells = conditions: for IC50: Homo sapiens, HCT-116, 72 h, 72 h, read-out: IC50 inhibition of cancer cell proliferation
Experimental: as §1, §2, §3, §4, §5, §6, §7, §8, §9, §10

HUVEC cells = conditions: for IC50: Homo sapiens, HUVEC
Experimental: as §1, §2, §3, §4, §5, §6, §7, §8, §9, §10

[1] = HUVEC (primary), natural C, methanol
[2] = HUVEC (primary), synthetic C, DMSO
[3] = HUVEC (primary), synthetic C, methanol

`CO[C@H](CC(=O)O)[C@@H](C)C(=O)[C@H](C)/C=C(\C)[C@H]1OC(=O)[C@H](O)[C@H](O)/C=C/[C@H](C)CCC[C@@H]1C` [Carolacton, carolacton] showed an IC50 (NK-92 cells; NK92, 72 h, NK-92, natural C, methanol, 72 h, read-out: IC50 inhibition of cancer cell proliferation) of 39.9 nM, an IC50 (NK-92 cells; NK92, 72 h, NK-92, synthetic C, DMSO, 72 h, read-out: IC50 inhibition of cancer cell proliferation) greater than 100000 nM and an IC50 (NK-92 cells; NK92, 72 h, read-out: IC50 inhibition of cancer cell proliferation, NK-92, synthetic C, methanal, 72 h) of 36.7 nM. The IC50 (NK-92 cells; NK92, malignant NK-92 cells, read-out: IC50 inhibition of proliferation) was 37 to 39 nM, the Bottom (NK-92 cells; NK-92, natural C, methanol) was −9.96 and the Top (NK-92 cells; NK-92, natural C, methanol) was 91.08. The Bottom (NK-92 cells; NK-92, synthetic C, methanal) was 1.208, the Top (NK-92 cells; NK-92, synthetic C, methanal) was 91.05 and the IC50 (NCI-N87 cells; natural C, methanol) was 225 nM. For the same compound, the IC50 (NCI-N87 cells; synthetic C, DMSO) was greater than 100000 nM, the IC50 (NCI-N87 cells; synthetic C, methanol) was 352 nM and the Bottom (NCI-N87 cells; natural C, methanol) was 11.93. It also gave a Top (NCI-N87 cells; natural C, methanol) of 41.34, a Bottom (NCI-N87 cells; synthetic C, methanol) of 6.683 and a Top (NCI-N87 cells; synthetic C, methanol) of 23.87. The IC50 (U-937 cells; U-937, 72 h, U-937, natural C, methanol, 72 h, read-out: IC50 inhibition of cancer cell proliferation) was 10.7 nM, the IC50 (U-937 cells; U-937, 72 h, U-937, synthetic C, DMSO, 72 h, read-out: IC50 inhibition of cancer cell proliferation) was 44.7 nM and the IC50 (U-937 cells; U-937, 72 h, U-937, synthetic C, methanol, 72 h, read-out: IC50 inhibition of cancer cell proliferation) was 6.84 nM. The IC50 (U-937 cells; U-937, Lymphoma cells (U-937), read-out: IC50 inhibition of proliferation) was 6.8 to 44.7 nM, the Bottom (U-937 cells; U-937, natural C, methanol) was “=0.0” and the Top (U-937 cells; U-937, natural C, methanol) was 67.6. The Bottom (U-937 cells; U-937, synthetic C, DMSO) was 1.808, the Top (U-937 cells; U-937, synthetic C, DMSO) was 61.59 and the Bottom (U-937 cells; U-937, synthetic C, methanol) was 0. It also gave a Top (U-937 cells; U-937, synthetic C, methanol) of 60.9, an IC50 (SW626 cells; natural C, methanol) of 365 nM and an IC50 (SW626 cells; synthetic C, DMSO) of 908 nM. The IC50 (SW626 cells; synthetic C, methanol) was 992 nM, the Bottom (SW626 cells; natural C, methanol) was 1.167 and the Top (SW626 cells; natural C, methanol) was 42.81. It also gave a Bottom (SW626 cells; synthetic C, DMSO) of 5.588, a Top (SW626 cells; synthetic C, DMSO) of 43.17 and a Bottom (SW626 cells; synthetic C, methanol) of 3.62. The Top (SW626 cells; synthetic C, methanol) was 47.2, the IC50 (THP-1 cells; THP 1, synthetic C, methanol, read-out: IC50 inhibition of cancer cell proliferation) was 49600 nM and the IC50 (THP-1 cells; THP-1, natural C, methanol, read-out: IC50 inhibition of cancer cell proliferation) was 8820 nM. It also gave an IC50 (THP-1 cells; read-out: IC50 inhibition of cancer cell proliferation, THP-1, synthetic C, DMSO) of 103000 nM, a Bottom (THP-1 cells; THP 1, synthetic C, methanol) of 14.83 and a Top (THP-1 cells; THP 1, synthetic C, methanol) of 67.53. For the same compound, the Bottom (THP-1 cells; THP-1, natural C, methanol) was 2.537, the Top (THP-1 cells; THP-1, natural C, methanol) was 75.92 and the Bottom (THP-1 cells; THP-1, synthetic C, DMSO) was −4.341. The Top (THP-1 cells; THP-1, synthetic C, DMSO) was “=100.0”, the IC50 (HCT 116 cells; natural C, methanol) was 530 nM and the IC50 (HCT 116 cells; synthetic C, DMSO) was 286 nM. It also gave an IC50 (HCT 116 cells; synthetic C, methanol) of 521 nM, a Bottom (HCT 116 cells; natural C, methanol) of −1.927 and a Top (HCT 116 cells; natural C, methanol) of 43.89. The Bottom (HCT 116 cells; synthetic C, DMSO) was −1.609, the Top (HCT 116 cells; synthetic C, DMSO) was 63.98 and the Bottom (HCT 116 cells; synthetic C, methanol) was −2.614. For the same compound, the Top (HCT 116 cells; synthetic C, methanol) was 63.68, the Bottom (HUVEC cells; [1]) was −4.548 and the Top (HUVEC cells; [1]) was “=100.0”. The Bottom (HUVEC cells; [2]) was −7.188, the Top (HUVEC cells; [2]) was “=100.0” and the Bottom (HUVEC cells; [3]) was −3.312. For the same compound, the Top (HUVEC cells; [3]) was “=100.0”, the IC50 (HUVEC cells; 72 h, HUVEC (primary), natural C, methanol, 72 h, read-out: IC50 inhibition of cell proliferation) was 48300 nM and the IC50 (HUVEC cells; 72 h, HUVEC (primary), synthetic C, DMSO, 72 h, read-out: IC50 inhibition of cell proliferation) was 103000 nM. It also gave an IC50 (HUVEC cells; HUVEC cells, read-out: IC50) of 46400 nM.
